Laboratory results from paper PMC12866179, “Oxidized MIF is an Alzheimer’s disease drug target relaying external risk factors to tau pathology” (Cell Reports Medicine, 2025).
Read-outs that look alike come from different tables or passages of the source.

How the values were obtained:
HSV-1 = assay: In-cell ELISA for antiviral (HSV-1) activity in Vero cells; type: cell-based, HSV-1 KOS strain; settings: for IC50: Human alphaherpesvirus 1, Vero; for potency relative to PAV-802 in inhibiting HSV-1 replication: in vitro assay
Procedure: Antiviral activity of the compounds was measured by in-cell ELISA that was adapted from Fabiani et al.[90] […] In parallel cells were infected with serial dilutions of HSV-1 to generate a standard curve. […] Following blocking with 5% BSA in PBS/0.05% Tween 20 (Sigma, PBS-T) for 60 min the cells were incubated with 50 μL of anti-HSV-1-gC antibody (abcam) diluted 1 to 10,000 in PBS-T over night at 4°C. The following day, cells were washed four times with PBS-T and then incubated with Hrp-conjugated goat anti-mouse antibody (Thermo Fisher Scientific) at a dilution of 1:10,000 in PBS-T for 60 min. Then, cells were washed four times with PBS-T before adding 50 μL of the substrate cocktail (OptEIA, BD). The reaction was stopped after 30 min by adding 50 μL of 2N H2SO4 and signals were spectrometrically analyzed using a Tecan Safire at 450 nm.

MTT assay, Vero cells = type: cell-based; settings: for CC50 at 24 h: African green monkey
Procedure: For viability analysis 4x10^4 Vero or 8x10^4 SH-SY5Y-tau-P301S cells were plated in a 96-well plate and incubated at 37°C overnight. Then the compounds diluted in DMSO were added to the cells. The final concentration of DMSO was 1%. The cells were then incubated for 24h (Vero) or 48h (SH-SY5Y). Afterward 20 μL of a Thiazolyl Blue Tetrazolium Bromide (MTT, Sigma) solution (5 mg/mL in PBS) was added to the cells and incubated for 4h allowing viable cells to reduce the yellow MTT into blue formazan metabolites. Following aspiration of the medium, the formazan was resuspended in 200 μL isopropanol/40 mM HCl and incubated for 30 min at RT. The diluted formazan was spectrometrically analyzed using a Tecan Safire Spectrometer at 560 nm and background at 670 nm was subtracted.

tau phosphorylation = assay: Tau assay (immunoblot of phospho-tau) in SH-SY5Y-tau-P301S cells; type: cell-based, human; settings: for tau phosphorylation at Ser202 and Thr205 (AT8): absence of virus, ISO-1 up to 100 μM; for effect on tau phosphorylation (AT8) in MIF-knockdown cells: SH-SY5Y-tau-P301S-MIF-knockdown cells; for potency relative to PAV-802 in inhibiting tau phosphorylation: in vitro assay
Procedure: For the analysis of compound effects on tau phosphorylation 4x10^5 SH-SY5Y tau-P301S cells were seeded on 24-well plates. At the next day the cells were treated with compounds diluted in DMSO. Final concentration of DMSO was 0.2%. After an incubation at 37°C for 48h the cells were washed twice with PBS and then lysed in PBS/1% NP40 (Applichem) including the cOmplete protease inhibitor cocktail 2 (Roche) and phosphatase inhibitor cocktail (Sigma). The protein concentration of the samples was determined with the DC Protein Assay (Bio-Rad).
After the protein concentration of cell lysates and homogenates had been determined using the DC Protein Assay Kit (Bio-Rad), 20 μg of each sample were dissolved in NuPAGE LDS Sample buffer (including 2% β-mercaptoethanol), boiled at 100°C for 5 min and then separated on NuPAGE Novex 4–12% Bis-Tris midi gels (Invitrogen) using NuPAGE MES SDS Running buffer (Invitrogen). Proteins were then transferred to a 0.2 μm nitrocellulose membrane (Amersham) in 24 mM Tris/192 mM glycine/20% MeOH at 400 mA for 2h using a tank blot system (Bio-Rad). In order to detect any blotting artifacts, the proteins on the membranes were visualized with Ponceau S (Sigma). The membranes were destained with PBS and then blocked with PBS/5% nonfat milk (Oxoid) for 1h at RT. Incubations with primary antibodies (diluted 1:1,000) in PBS-T were carried out overnight at 4°C. Then the membranes were washed three times with PBS-T for 10 min and afterward incubated with fluorescent secondary antibodies (IR Dye 680 or 800: Li-COR Biosciences.) diluted 1:20,000 in PBS-T for 1h at RT. Following three washing steps with PBS-T for 10 min each, the membranes were scanned using an LI-COR Odyssey CLX. Signal intensities were calculated using the Image Studio Version 2.1 software (LI-COR Biosciences). Blots were reused for staining with additional primary antibodies following the same procedure.

in vitro = in vitro ADME
MIF = target: T1, MIF (Homo sapiens, UniProt P14174); assay: Drug resin affinity chromatography (DRAC), MIF; type: binding; settings: SH-SY5Y-tau-P301S lysates
T1 construct: endogenous in cells; host or cells: SH-SY5Y-tau-P301S cell lysate
T1 sequence (P14174 2-115): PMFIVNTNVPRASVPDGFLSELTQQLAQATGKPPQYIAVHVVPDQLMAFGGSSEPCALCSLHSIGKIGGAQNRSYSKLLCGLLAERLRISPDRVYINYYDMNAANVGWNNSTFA
Procedure: (§1) For drug resin affinity chromatography (DRAC), supernatant of cell lysates or brain extracts were supplemented with 1 mM of ribonucleoside triphosphates (ATP, GTP, CTP, UTP; NEB), 10 mM creatine phosphate (Sigma) and 10 μL/mL of a 5 mg/mL stock solution of creatine kinase (Sigma). The samples were then loaded onto 20 μL of compound-coupled resin that were equilibrated with PBB-buffer (plus supplements). After one hour of incubation at 26°C, the beads were washed with PBB (100x bed volume). Bound proteins were then eluted either with 200 μM PAV-645 (pig brain) or 100 μM free compound (human brain samples; cell lysates) in the same buffer used as competitor solution or for stripping 1% SDS or 8M urea (cell lysates) for 1h. All elutions were kept frozen until further analysis.

CUTA = target: T2, CUTA (Homo sapiens, UniProt O60888); assay: Drug resin affinity chromatography (DRAC), CUTA; type: binding; settings: SH-SY5Y-tau-P301S lysates
T2 construct: endogenous in cells; host or cells: SH-SY5Y-tau-P301S cell lysate
T2 sequence (O60888 33-179): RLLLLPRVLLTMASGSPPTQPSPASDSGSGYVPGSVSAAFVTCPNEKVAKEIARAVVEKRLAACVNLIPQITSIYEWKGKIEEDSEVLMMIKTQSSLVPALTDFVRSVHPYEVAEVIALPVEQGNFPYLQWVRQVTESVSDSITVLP
Procedure: as §1

pox viruses = settings: cited from earlier work

| Compound | IC50 (HSV-1) [nM] | IC50 (HSV-1; read-out: IC50, HSV-1 replication, in-cell ELISA) [nM] | potency relative to PAV-802 in inhibiting HSV-1 replication (HSV-1) | CC50 at 24 h (MTT assay, Vero cells; CC50 (µM)) [µM] | CC50 at 24 h (MTT assay, Vero cells; CC50, MTT assay in Vero) [µM] | CC50 (MTT assay, Vero cells; CC50 (µM)) [µM] | tau phosphorylation at Thr181 (AT270) (tau phosphorylation; SH-SY5Y-tau-P301S cells) | tau phosphorylation at Thr231 (AT180) (tau phosphorylation; SH-SY5Y-tau-P301S cells) | HSV-1-induced increase of tau phosphorylation (AT8) (tau phosphorylation; SH-SY5Y-tau-P301S cells infected with HSV-1) | tau phosphorylation at Ser202 and Thr205 (AT8) (tau phosphorylation; SH-SY5Y-tau-P301S cells) | effect on tau phosphorylation (AT8) in MIF-knockdown cells (tau phosphorylation) | potency relative to PAV-802 in inhibiting tau phosphorylation (tau phosphorylation) | fraction unbound (in vitro) | elution of MIF from PAV-617 resins by free compound (MIF) | elution of CUTA from PAV-617 resins by free compound (CUTA) | antiviral effects on pox viruses (pox viruses) |
| --- | --- | --- | --- | --- | --- | --- | --- | --- | --- | --- | --- | --- | --- | --- | --- | --- |
| CCc1cc(N2CCCC2)cc2[s+]c3cc(N4CCCC4)cc(C)c3nc12.[I-] [PAV-174, 3,7-Di(pyrrolidine-1-yl) 1-ethyl-9-methyl-phenothiazin-5-ium iodide] | 20 | 21 | around 2 logs | 1.2 | 1.12 | 1.16 | only at higher concentrations | dose-dependent reduction | absent | reduced tau phosphorylation | absent | around 2 logs | 0.001 | eluted | eluted | antiviral effects |
| [I-].c1cc2nc3ccc(N4CCCC4)cc3[s+]c2cc1N1CCCC1 [PAV-617, 3,7-Di(pyrrolidine-1-yl)phenothiazine-5-ium iodide] | 220 | – | retained that enhanced activity | – | – | 20.1 | – | – | – | reduced tau phosphorylati on ly in control | bu t no t in MIF-knockdown | retained that enhanced activity | 0.088 | eluted | eluted | antiviral effects |
